Assay results reported in PMC9102502, “The Influence of Selected Antipsychotic Drugs on Biochemical Aspects of Alzheimer’s Disease” (International Journal of Molecular Sciences, 2022).
Like-named read-outs stand apart in the source and are kept apart here.

How the values were obtained:
AChE [1] = conditions: read-out: IC50 AChE, cited from earlier work
BuChE [2] = conditions: read-out: IC50 BuChE, cited from earlier work
BuChE [3] = target: T1, BuChE (Homo sapiens, UniProt P06276); assay: Kinetic parameters of enzymatic reaction (Hanes–Woolf), BuChE; type: biochemical; design: The solution of plasma 200-fold diluted with 0.9% NaCl; from tissue; host or cells: citrated plasma from blood of healthy human donors
Method: Kinetic parameters were obtained on the basis of three individual experiments carried out on different biological materials. For this purpose, various concentrations of substrates (ATC and BTC) were used in experiments. The type of inhibition and kinetic parameters of enzymatic reactions were obtained by linear regression using the Hanes–Woolf equations.
(§1) AChE SI (selectivity index) was calculated by using the following formula: SI = IC50 of BuChE/IC50 of AChE. However, BuChE SI was defined as IC50 of AChE/IC50 of BuChE. Maximal velocity (Vmax) and the Michaelis constant (Km) were calculated with the use of linear regression—according to the Hanes–Woolf plot.

[4] = target: T2, human erythrocyte acetylcholinesterase (Homo sapiens, UniProt P22303); assay: AChE inhibition, modified Ellman's method; type: biochemical
T2 construct: solution of hemolyzed erythrocytes diluted 400-fold; from tissue; host or cells: hemolyzed erythrocytes from blood of healthy human donors
Method: (§2) The activity of both cholinesterases (AChE and BuChE) were assessed spectrophotometrically according to the Ellman’s method with some modifications by Worek et al.. This test development included experimental determination of the optimal testing conditions. For all measurements, 37 °C was used as the best temperature for enzymatic determinations in material of human origin.
(§3) The solution of plasma 200-fold diluted with 0.9% NaCl and solution of hemolyzed erythrocytes diluted 400-fold with 0.9% were incubated (37 °C, 15 min) with 5 μL DTNB (0.01 mol/L) and 10 μL tested compound at a wider range of concentration than the therapeutic range in order to assess the overall effect of the compound on human esterases (AChE and BuChE). The controls without antipsychotics, containing only DTNB and diluted plasma or diluted solution of hemolyzed erythrocytes, were prepared. […] The final volume of a sample was 500 μL. […] The maximal velocity of the reaction was determined on the basis of changes in absorbance over time.
as §1

[5] = target: T3, human plasma butyrylcholinesterase (Homo sapiens, UniProt P06276); assay: BuChE inhibition, modified Ellman's method; type: biochemical
T3 construct: The solution of plasma 200-fold diluted with 0.9% NaCl; from tissue; host or cells: citrated plasma from blood of healthy human donors
Method: as §2, §3, §1

[6] = target: T4, recombinant human β-amyloid (1–42) (Homo sapiens, UniProt P05067); assay: Beta-amyloid aggregation, Thioflavin T fluorescence; type: biochemical
T4 construct: recombinant human β-amyloid (1–42; ultrapure); purchased Sigma-Aldrich (St. Louis, MO, USA)
Method: Aβ42 peptide was dissolved in DMSO and left to hydrate for a few minutes. The solution was centrifuged at 10,000 rpm for 5 min at 4 °C to separate any precipitated material. The solution at a concentration of 220 μmol/L was stored in small aliquots at a temperature of −30 °C and before each experiment it was restored at 37 °C for 15 min. Test samples containing Aβ42 solution at the final concentration of 20 μmol/L was incubated with antipsychotics at concentrations equaling their TPC and 1/2 × TPC (v = 10 µL). The final volume of the test samples was 100 μL. The positive control constituted a sample of Aβ42 peptide, whereas the negative control contained tannic acid at the final concentrations of 0.1 µmol/L and 10 µmol/L. The fibrillation reaction was set up by addition of thioflavin ThT dye at a concentration of 5 µmol/L. The fluorescence intensity was measured at room temperature with Ex/Em = 440 nm/484 nm (Synergy H1; BioTek, Winooski, VT, USA). The measurements of fluorescence intensity expressed as relative fluorescence units (RFU) were taken at 10, 30, 60 and 90 min and then after 24 and 48 h. The fluorescence intensity measured for control equaled 100% of Aβ aggregation and it was used to estimate the inhibitory properties of the tested antipsychotics.

HUVEC cells = assay: WST-1 viability under AAPH-induced oxidative stress, HUVEC; type: cell-based, human; conditions: AAPH 17.5 mmol/L, relative to pure medium control
Method: (§4) WST-1 assay (Takara, Takara Bio Europe, Saint-Germain-en-Laye, France) was used to assess the effects of antipsychotics on the growth of HUVEC and astrocytes. The experiments were conducted as described previously. HUVEC were seeded at a density of 7500 cells, and astrocytes at 5000 cells per well on 96-well microplates and cultured for 24 h followed by treatment with compounds at ½ × TPCmax and TPCmax or pure medium as a control (v = 100 μL) for another 24 h (37 °C, 5% CO2). Subsequently, the cells were washed with culture medium (100 μL) and WST-1 reagent diluted in medium (10 μL of reagent + 90 μL of medium) was added. The plates were incubated at 37 °C in 5% CO2 for another 90 min for HUVEC and 60 min for astrocytes. The absorbance was read at 450 nm using a microplate reader (iMARK, Bio-Rad, Hercules, CA, USA). The cells viability was expressed as a percentage of the control samples which constituted 100% viability.
(§5) Moreover, the WST-1 assay was used to evaluate potential protective effects of antipsychotics on the growth of HUVEC and astrocytes under conditions of AAPH-induced oxidative stress. The experimental conditions were the same as in viability studies. AA at the final concentration of 10 μg/mL was used as an antioxidant control. After reaching the confluence, the antipsychotics were added at concentrations equaling ½ × TPCmax and TPCmax. After 1 h incubation under standard conditions, 50 μL AAPH was added to the wells containing tested compounds or AA. The AAPH concentration was chosen on the basis of preliminary experiments—17.5 mmol/L in HUVEC experiments, and 15.0 mmol/L in the case of astrocytes.

astrocytes = assay: WST-1 viability under AAPH-induced oxidative stress, astrocytes; type: cell-based, human; conditions: for astrocyte viability under AAPH: ½ × TPC (benperidol 5 μg/L, bromperidol 12.5 μg/L), AAPH 15 mmol/L
Method: as §4, §5

AChE [7] = target: AChE (Homo sapiens, UniProt P22303); assay: Synergism of antipsychotics with donepezil/rivastigmine (binary mixtures), AChE; conditions: ComboSyn;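 further: antipsychotic concentration kept fixed across all measurements, selected from estimated therapeutic plasma levels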
BuChE [8] = target: T1, BuChE; assay: Synergism of antipsychotics with donepezil/rivastigmine (binary mixtures), BuChE; conditions: ComboSyn;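 further: combination index derived by median-effect analysis of combined drug effects on the cholinesterase, with values below 1 meaning synergism, exactly 1 additivity and above 1 antagonism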
[9] = reference values according to the literature ref 28
[10] = reference values according to the literature ref 31
[11] = reference values according to the literature ref 32
[12] = reference values according to the literature ref 33
[13] = ½ × TPC (bromperidol 12.5 μg/L, quetiapine 200 μg/L)
[14] = donepezil 0.005 μmol/L + antipsychotic at TPCmax, CI < 1 synergism, > 1 antagonism
[15] = donepezil 0.01 μmol/L + antipsychotic at TPCmax
[16] = donepezil 0.02 μmol/L + antipsychotic at TPCmax
[17] = donepezil 0.05 μmol/L + antipsychotic at TPCmax
[18] = donepezil 0.1 μmol/L + antipsychotic at TPCmax
[19] = rivastigmine 5 μmol/L + antipsychotic at TPCmax
[20] = rivastigmine 10 μmol/L + antipsychotic at TPCmax
[21] = rivastigmine 15 μmol/L + antipsychotic at TPCmax
[22] = rivastigmine 25 μmol/L + antipsychotic at TPCmax
[23] = rivastigmine 40 μmol/L + antipsychotic at TPCmax
[24] = rivastigmine 50 μmol/L + antipsychotic at TPCmax
[25] = rivastigmine 75 μmol/L + antipsychotic at TPCmax
[26] = rivastigmine 100 μmol/L + antipsychotic at TPCmax
[27] = donepezil 2 μmol/L + antipsychotic at TPCmax
[28] = donepezil 5 μmol/L + antipsychotic at TPCmax
[29] = donepezil 10 μmol/L + antipsychotic at TPCmax
[30] = donepezil 20 μmol/L + antipsychotic at TPCmax
[31] = donepezil 100 μmol/L + antipsychotic at TPCmax
[32] = rivastigmine 0.05 μmol/L + antipsychotic at TPCmax
[33] = rivastigmine 0.1 μmol/L + antipsychotic at TPCmax
[34] = rivastigmine 0.25 μmol/L + antipsychotic at TPCmax
[35] = rivastigmine 0.5 μmol/L + antipsychotic at TPCmax
[36] = rivastigmine 0.75 μmol/L + antipsychotic at TPCmax
[37] = rivastigmine 1 μmol/L + antipsychotic at TPCmax
[38] = rivastigmine 2.5 μmol/L + antipsychotic at TPCmax

T3 sequence (P06276 29-602): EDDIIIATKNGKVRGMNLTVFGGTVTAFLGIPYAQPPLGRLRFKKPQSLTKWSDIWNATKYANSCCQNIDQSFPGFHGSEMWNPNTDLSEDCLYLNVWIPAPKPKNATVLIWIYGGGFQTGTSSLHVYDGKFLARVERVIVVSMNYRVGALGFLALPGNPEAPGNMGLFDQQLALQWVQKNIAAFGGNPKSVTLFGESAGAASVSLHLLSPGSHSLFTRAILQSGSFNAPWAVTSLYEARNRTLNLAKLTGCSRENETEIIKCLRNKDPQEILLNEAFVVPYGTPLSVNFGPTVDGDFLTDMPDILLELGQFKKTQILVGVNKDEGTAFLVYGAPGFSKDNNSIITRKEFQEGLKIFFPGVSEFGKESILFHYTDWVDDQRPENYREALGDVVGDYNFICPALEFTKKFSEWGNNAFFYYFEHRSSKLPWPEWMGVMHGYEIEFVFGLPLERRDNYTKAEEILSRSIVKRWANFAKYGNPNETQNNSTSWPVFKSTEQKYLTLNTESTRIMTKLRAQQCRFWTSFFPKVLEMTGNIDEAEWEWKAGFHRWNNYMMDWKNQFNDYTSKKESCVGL
T1 sequence (P06276 29-602): as above
T2 sequence (P22303 32-617 isoform P22303-2 limits assumed): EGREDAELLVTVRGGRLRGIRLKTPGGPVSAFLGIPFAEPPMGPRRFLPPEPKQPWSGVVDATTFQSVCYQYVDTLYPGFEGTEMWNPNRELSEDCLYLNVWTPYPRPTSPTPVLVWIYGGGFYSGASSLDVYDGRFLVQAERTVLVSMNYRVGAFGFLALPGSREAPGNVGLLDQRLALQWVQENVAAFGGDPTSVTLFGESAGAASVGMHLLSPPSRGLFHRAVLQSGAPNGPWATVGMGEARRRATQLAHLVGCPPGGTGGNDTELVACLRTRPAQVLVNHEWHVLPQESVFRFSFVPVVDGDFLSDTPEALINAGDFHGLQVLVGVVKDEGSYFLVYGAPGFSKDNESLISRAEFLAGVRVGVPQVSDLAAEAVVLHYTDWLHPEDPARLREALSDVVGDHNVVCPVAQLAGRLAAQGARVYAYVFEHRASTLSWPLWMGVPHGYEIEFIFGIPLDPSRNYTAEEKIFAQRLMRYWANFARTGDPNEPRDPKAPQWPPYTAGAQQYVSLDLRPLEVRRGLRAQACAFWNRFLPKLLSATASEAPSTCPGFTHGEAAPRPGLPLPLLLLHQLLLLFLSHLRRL
AChE, sequence (P22303 32-617 isoform P22303-2 limits assumed): as above
T4 sequence (P05067 672-713 limits assumed): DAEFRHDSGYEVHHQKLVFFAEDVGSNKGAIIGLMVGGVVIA

Structure (SMILES) | viability of HUVEC under AAPH (HUVEC cells; [13]) | astrocyte viability under AAPH (astrocytes) | CI (combination index), AChE (AChE [7]; [14]) | CI (combination index), AChE (AChE [7]; [15]) | CI (combination index), AChE (AChE [7]; [16]) | CI (combination index), AChE (AChE [7]; [17]) | CI (combination index), AChE (AChE [7]; [18]) | CI (combination index), AChE (AChE [7]; [19]) | CI (combination index), AChE (AChE [7]; [20]) | CI (combination index), AChE (AChE [7]; [21]) | CI (combination index), AChE (AChE [7]; [22]) | CI (combination index), AChE (AChE [7]; [23]) | CI (combination index), AChE (AChE [7]; [24]) | CI (combination index), AChE (AChE [7]; [25]) | CI (combination index), AChE (AChE [7]; [26]) | CI (combination index), BuChE (BuChE [8]; [27]) | CI (combination index), BuChE (BuChE [8]; [28]) | CI (combination index), BuChE (BuChE [8]; [29]) | CI (combination index), BuChE (BuChE [8]; [30]) | CI (combination index), BuChE (BuChE [8]; [31]) | also measured
CCN(C)C(=O)Oc1cccc([C@H](C)N(C)C)c1 [Rivastigmine, rivastigmine] |  |  |  |  |  |  |  |  |  |  |  |  |  |  |  |  |  |  |  |  | IC50 (AChE [1]; [9]): […]; IC50 (AChE [1]; [10]): […]; IC50 (AChE [1]; [11]): […]; IC50 (AChE [1]; [12]): […]; IC50 (BuChE [2]; [9]): […]; IC50 (BuChE [2]; [10]): […]; IC50 (BuChE [2]; [11]): […]; IC50 (BuChE [2]; [12]): […]; Vmax(i) BuChE (BuChE [3]; compound at its IC50): […]; type of inhibition of BuChE (BuChE [3]; from Km(i), Vmax(i) vs Km, Vmax, mixed inhibition): noncompetitively
O=C(CCCN1CCC(n2c(O)nc3ccccc32)CC1)c1ccc(F)cc1 [Benperidol, benperidol] | 82.9% | 81.9% | 0.83 | 1.09 | 1.04 | 1.02 | 1.24 | 0.31 | 0.44 | 0.48 | 0.57 | 0.62 | 0.63 | 0.66 | 0.65 | 0.40 | 0.50 | 0.57 | 0.60 | 0.84 | AChE reaction velocity ([4]; 75 µg/L, control 0.258 ± 0.016 A/min): 0.250 ± 0.015 A/min; AChE reaction velocity ([4]; 100 µg/L, control 0.258 ± 0.016 A/min): 0.239 ± 0.014 A/min; BuChE reaction velocity ([5]; 75 µg/L, control 0.302 ± 0.029 A/min): 0.283 ± 0.029 A/min; BuChE reaction velocity ([5]; 100 µg/L, control 0.302 ± 0.029 A/min): 0.279 ± 0.021 A/min; inhibition of Aβ ([6]; 10 μg/L, time range from 10 min to 24 h incubation): 42.1–53.3%; astrocyte viability compared with the control (pure AAPH) (astrocytes; benperidol 5 and 10 μg/L, penfluridol 12.5 μg/L, pimozide 15 μg/L, promazine 25 and 50 μg/L): statistically significant increase; CI (combination index), BuChE (BuChE [8]; donepezil 50 μmol/L + antipsychotic at TPCmax): 0.69; CI (combination index), BuChE (BuChE [8]; [32]): 0.27; CI (combination index), BuChE (BuChE [8]; [33]): 0.32; CI (combination index), BuChE (BuChE [8]; [34]): 0.56; CI (combination index), BuChE (BuChE [8]; [35]): 0.91; CI (combination index), BuChE (BuChE [8]; [36]): 0.95; CI (combination index), BuChE (BuChE [8]; [37]): 1.00; CI (combination index), BuChE (BuChE [8]; [38]): 1.08; CI (combination index), BuChE (BuChE [8]; [19]): 1.00
O=C(CCCN1CCC(O)(c2ccc(Br)cc2)CC1)c1ccc(F)cc1 [Bromperidol, bromperidol] | 66.8% | 68.9% | 0.07 | 0.78 | 0.81 | 0.81 | 0.80 | 0.32 | 0.38 | 0.46 | 0.50 | 0.53 | 0.49 | 0.55 | 0.60 | 0.43 | 0.52 | 0.57 | 0.70 | 0.89 | AChE reaction velocity ([4]; 200 µg/L, control 0.236 ± 0.032 A/min): 0.228 ± 0.029 A/min; BuChE reaction velocity ([5]; 200 µg/L, control 0.349 ± 0.013 A/min): 0.230 ± 0.023 A/min; percentage value of Aβ inhibition ([6]; 12.5 μg/L, 48 h, compared with the control (100% Aβ aggregation)): 51.2%; effect on Aβ aggregation after a longer incubation time ([6]; 24 and 48 h, both tested concentrations): substantially inhibit; viability of HUVEC under AAPH (HUVEC cells; TPC (bromperidol 25 μg/L, quetiapine 400 μg/L)): 82.5%; CI (combination index), BuChE (BuChE [8]; [32]): 0.18; CI (combination index), BuChE (BuChE [8]; [33]): 0.30; CI (combination index), BuChE (BuChE [8]; [34]): 0.57; CI (combination index), BuChE (BuChE [8]; [35]): 0.74; CI (combination index), BuChE (BuChE [8]; [36]): 0.86; CI (combination index), BuChE (BuChE [8]; [37]): 0.92; CI (combination index), BuChE (BuChE [8]; [38]): 0.96; CI (combination index), BuChE (BuChE [8]; [19]): 0.96
